Source: US6949557B2, “Hydroanthracene based compounds as anticancer agents” (Dabur Research Foundation, priority 2003, dated 2005)
Converted amounts (≈) assume the structure as drawn.

Tests used:
ECV304 = experiment: three day MTT cytotoxicity assay, ECV304; assay type: cell-based, human; conditions: 72 hours incubation, ECV304 endothelial cells
Experimental: (§1) A number of the anthracene based compounds were tested for cytotoxicity against 12 human tumor cell lines. Briefly, a three day MTT cytotoxicity assay was performed, which is based on the principle of uptake of MTT (3-(4,5-dimethylthiazol-2-yl)-2,5-diphenyl tetrazolium bromide), a tetrazolium salt, by the metabolically active cells where it is metabolized by active mitochondria into a blue colored formazan product that is read spectrophotometrically. MTT was dissolved in phosphate buffered saline with a pH of 7.4 to obtain an MTT concentration of 5 mg/ml; the resulting mixture was filtered through a 0.22 micron filter to sterilize and remove a small amount of insoluble residue. For each type of tumor cell, 10,000 to 15,000 cells were seeded in a 96-well culture plate and incubated with the individual anthracene based compounds in a CO2 incubator for a total of 72 hours. Control cells not treated with the anthracene based compounds were similarly incubated. The assay was terminated by adding 100 ug (20 ul) of MTT to each well, then incubating for additional one hour, and finally adding 50 ul of 10% SDS-0.01N HCl to each well to lyse the cells and dissolve formazan. After incubating for one hour, the plate was read spectrophotometrically at 540 nm and the percentage of cytotoxicity calculated using the following formula:
(§2) Cytotoxicity percentage=100×[1−(X/R1)],
(§3) where X=(absorbance of treated sample at 540 nm)−(absorbance of blank at 540 nm)
(§4) R1=absorbance of control sample at 540 nm.
(§5) The IC50 Values of the cytotoxicity defined as the concentration at which 50% of the cells are killed in vitro was calculated for each cell line treated with each of the anthracene based compounds.

MCF7 = experiment: three day MTT cytotoxicity assay, MCF7; assay type: cell-based, human; conditions: 72 hours incubation, MCF7 breast cells
Experimental: as §1, §2, §3, §4, §5

HT29 = experiment: three day MTT cytotoxicity assay, HT29; assay type: cell-based, human; conditions: 72 hours incubation, HT29 colon cells
Experimental: as §1, §2, §3, §4, §5

L132 = experiment: three day MTT cytotoxicity assay, L132; assay type: cell-based, human; conditions: 72 hours incubation, L132 lung cells
Experimental: as §1, §2, §3, §4, §5

KB = experiment: three day MTT cytotoxicity assay, KB; assay type: cell-based, human; conditions: 72 hours incubation, KB oral cells
Experimental: as §1, §2, §3, §4, §5

MiaPaca2 = experiment: three day MTT cytotoxicity assay, MiaPaca2; assay type: cell-based, human; conditions: 72 hours incubation, MiaPaca2 pancreatic cells
Experimental: as §1, §2, §3, §4, §5

PA1 = experiment: three day MTT cytotoxicity assay, PA1; assay type: cell-based, human; conditions: 72 hours incubation, PA1 ovarian cells
Experimental: as §1, §2, §3, §4, §5

Hep2 = experiment: three day MTT cytotoxicity assay, Hep2; assay type: cell-based, human; conditions: 72 hours incubation, Hep2 larynx cells
Experimental: as §1, §2, §3, §4, §5

U87MG = experiment: three day MTT cytotoxicity assay, U87MG; assay type: cell-based, human; conditions: 72 hours incubation, U87MG glioblastoma cells
Experimental: as §1, §2, §3, §4, §5

MOLT4 = experiment: three day MTT cytotoxicity assay, MOLT4; assay type: cell-based, human; conditions: 72 hours incubation, MOLT4 leukemia cells
Experimental: as §1, §2, §3, §4, §5

PTC = experiment: three day MTT cytotoxicity assay, PTC; assay type: cell-based, human; conditions: 72 hours incubation, PTC colon cells
Experimental: as §1, §2, §3, §4, §5

DU145 = experiment: three day MTT cytotoxicity assay, DU145; assay type: cell-based, human; conditions: 72 hours incubation, DU145 prostate cells
Experimental: as §1, §2, §3, §4, §5

## COc1ccc(OC)c2c1Cc1c(ccc(C)c1OC(=O)[C@H](O)[C@@H](N)c1ccccc1)C2(C)C [Compound 29, 3-Amino-2-hydroxy-3-phenyl-propionic acid 5,8-dimethoxy-2,10,10,-trimethyl-9,10-dihydro-anthracen-1-yl ester]
ECV304
  ED50 ECV304 Endothelial: 9.0 µg/mL (≈ 19.5 µM)
MCF7
  ED50 MCF7 Breast: 29 µg/mL (≈ 62.8 µM)
HT29
  ED50 HT29 Colon: 6.5 µg/mL (≈ 14.1 µM)
L132
  ED50 L132 Lung: 5.0 µg/mL (≈ 10.8 µM)
KB
  ED50 KB Oral: 30 µg/mL (≈ 65 µM)
MiaPaca2
  ED50 MiaPaca2 Pancreatic: 35 µg/mL (≈ 75.8 µM)
PA1
  ED50 PA1 Ovarian: 5.0 µg/mL (≈ 10.8 µM)
Hep2
  ED50 Hep2 Larynx: 5.0 µg/mL (≈ 10.8 µM)
U87MG
  ED50 U87MG Glioblastoma: 8.0 µg/mL (≈ 17.3 µM)
MOLT4
  ED50 MOLT4 Leukemia: 5.0 µg/mL (≈ 10.8 µM)
PTC
  ED50 PTC Colon: 5.0 µg/mL (≈ 10.8 µM)
DU145
  ED50 DU145 Prostate: 34 µg/mL (≈ 73.7 µM)

## COc1ccc(OC)c2c1CC1C(OC(=O)C(O)C(N)c3ccccc3)C(C)=CCC1C2(C)C (stereo not shown) [Compound 7, 3-Amino-2-hydroxy-3-phenyl-propionic acid 5,8-dimethoxy-2,10,10-trimethyl-1,4,4a,9,9a,10-hexahydro-anthracen-1-yl ester]
ECV304
  ED50 ECV304 Endothelial: 6.0 µg/mL (≈ 12.9 µM)
MCF7
  ED50 MCF7 Breast: 35 µg/mL (≈ 75.2 µM)
HT29
  ED50 HT29 Colon: 8.0 µg/mL (≈ 17.2 µM)
L132
  ED50 L132 Lung: 24 µg/mL (≈ 51.5 µM)
KB
  ED50 KB Oral: 29 µg/mL (≈ 62.3 µM)
MiaPaca2
  ED50 MiaPaca2 Pancreatic: 35 µg/mL (≈ 75.2 µM)
PA1
  ED50 PA1 Ovarian: 5.0 µg/mL (≈ 10.7 µM)
Hep2
  ED50 Hep2 Larynx: 5.0 µg/mL (≈ 10.7 µM)
U87MG
  ED50 U87MG Glioblastoma: 24 µg/mL (≈ 51.5 µM)
MOLT4
  ED50 MOLT4 Leukemia: 5.0 µg/mL (≈ 10.7 µM)
PTC
  ED50 PTC Colon: 5.0 µg/mL (≈ 10.7 µM)
DU145
  ED50 DU145 Prostate: 33 µg/mL (≈ 70.9 µM)

## CC1=CCC2C(CC3=C(C(=O)C=CC3=O)C2(C)C)C1OC(=O)C(O)C(N)c1ccccc1 (stereo not shown) [Compound 26, 3-Amino-2-hydroxy-3-phenyl-propionic acid 2,10,10-trimethyl-5,8-dioxo-1,4,4a,5,8,9,9a,10-octahydro-anthracen-1-yl ester]
ECV304
  ED50 ECV304 Endothelial: 29 µg/mL (≈ 66.6 µM)
MCF7
  ED50 MCF7 Breast: 32 µg/mL (≈ 73.5 µM)
HT29
  ED50 HT29 Colon: 6.5 µg/mL (≈ 14.9 µM)
L132
  ED50 L132 Lung: 10 µg/mL (≈ 23 µM)
KB
  ED50 KB Oral: 31 µg/mL (≈ 71.2 µM)
MiaPaca2
  ED50 MiaPaca2 Pancreatic: 35 µg/mL (≈ 80.4 µM)
PA1
  ED50 PA1 Ovarian: 19 µg/mL (≈ 43.6 µM)
Hep2
  ED50 Hep2 Larynx: 20 µg/mL (≈ 45.9 µM)
U87MG
  ED50 U87MG Glioblastoma: 24 µg/mL (≈ 55.1 µM)
MOLT4
  ED50 MOLT4 Leukemia: 5.0 µg/mL (≈ 11.5 µM)
PTC
  ED50 PTC Colon: 5.0 µg/mL (≈ 11.5 µM)
DU145
  ED50 DU145 Prostate: 26 µg/mL (≈ 59.7 µM)

## CC1=CCC2C(C)(C)C3=C(CC2(C)C1OC(=O)C1OC(C)(C)N(C(=O)OC(C)(C)C)C1c1ccccc1)C(=O)C=CC3=O (stereo not shown) [Compound 23, 2,2-Dimethyl-4-phenyl-oxazolidine-3,5-dicarboxylic acid 3-tert-butyl ester 5-(2,9a,10,10-tetramethyl-5,8-dioxo-1,4,4a,5,8,9,9a,10-octahydro-anthracen-1-yl) ester]
other
  melting point: 90 to 92 °C

## CC1=CCC2C(C)(C)C3=C(CC2(C)C1OC(=O)C(O)C(N)c1ccccc1)C(=O)C=CC3=O (stereo not shown) [Compound 24, 3-Amino-2-hydroxy-3-phenyl-propionic acid 2,9a,10,10-tetramethyl-5,8-dioxo-1,4,4a,5,8,9,9a,10-octahydro-anthracen-1-yl ester]
ECV304
  ED50 ECV304 Endothelial: 3 µg/mL (≈ 6.67 µM)
MCF7
  ED50 MCF7 Breast: >100 µg/mL
HT29
  ED50 HT29 Colon: 6 µg/mL (≈ 13.3 µM)
L132
  ED50 L132 Lung: >100 µg/mL
KB
  ED50 KB Oral: 6.6 µg/mL (≈ 14.7 µM)
MiaPaca2
  ED50 MiaPaca2 Pancreatic: >100 µg/mL
PA1
  ED50 PA1 Ovarian: 8 µg/mL (≈ 17.8 µM)
Hep2
  ED50 Hep2 Larynx: 14 µg/mL (≈ 31.1 µM)
U87MG
  ED50 U87MG Glioblastoma: 5 µg/mL (≈ 11.1 µM)
MOLT4
  ED50 MOLT4 Leukemia: 7 µg/mL (≈ 15.6 µM)
DU145
  ED50 DU145 Prostate: 5 µg/mL (≈ 11.1 µM)

## CC1=CCC2C(CC3=C(C(=O)C=CC3=O)C2(C)C)C1OC(=O)C1OC(C)(C)N(C(=O)OC(C)(C)C)C1c1ccccc1 (stereo not shown) [Compound 25, 2,2-Dimethyl-4-phenyl-oxazolidine-3,5-dicarboxylic acid 3-tert-butyl ester 5-(2,10,10-trimethyl-5,8-dioxo-1,4,4a,5,8,9,9a,10-octahydro-anthracen-1-yl) ester]
ECV304
  ED50 ECV304 Endothelial: 5 µg/mL (≈ 8.69 µM)
MCF7
  ED50 MCF7 Breast: 16 µg/mL (≈ 27.8 µM)
HT29
  ED50 HT29 Colon: 35 µg/mL (≈ 60.8 µM)
L132
  ED50 L132 Lung: 4 µg/mL (≈ 6.95 µM)
KB
  ED50 KB Oral: 35 µg/mL (≈ 60.8 µM)
MiaPaca2
  ED50 MiaPaca2 Pancreatic: 35 µg/mL (≈ 60.8 µM)
PA1
  ED50 PA1 Ovarian: 8 µg/mL (≈ 13.9 µM)
Hep2
  ED50 Hep2 Larynx: 11 µg/mL (≈ 19.1 µM)
U87MG
  ED50 U87MG Glioblastoma: 24 µg/mL (≈ 41.7 µM)
MOLT4
  ED50 MOLT4 Leukemia: <1 µg/mL
PTC
  ED50 PTC Colon: 8 µg/mL (≈ 13.9 µM)
DU145
  ED50 DU145 Prostate: 32 µg/mL (≈ 55.6 µM)

## CC1=CCC2C(C)(C)C3=C(CC2(C)C1OC(=O)c1cc(Cl)nc(Cl)n1)C(=O)C=CC3=O (stereo not shown) [Compound 27, 2,6-Dichloro-pyrimidine-4-carboxylicacid-2,9a,10,10-tetramethyl-5,8-dioxo-1,4,4a,5,8,9,9a,10-octahydro-anthracen-1-yl ester]
other
  melting point: 137 to 140 °C

## COc1ccc(OC)c2c1C[C@]1(C)C(OC(=O)[C@H](O)[C@@H](N)c3ccccc3)C(C)=CC[C@H]1C2(C)C (stereo partly shown) [Compound 11, 3-Amino-2-hydroxy-3-phenyl-propionic acid 5,8-dimethoxy-2,9a,10,10-tetramethyl-1,4,4a,9,9a,10-hexahydro-anthrcen-1-yl ester]
ECV304
  ED50 ECV304 Endothelial: 2 µg/mL (≈ 4.17 µM)
MCF7
  ED50 MCF7 Breast: 8 µg/mL (≈ 16.7 µM)
HT29
  ED50 HT29 Colon: 27 µg/mL (≈ 56.3 µM)
L132
  ED50 L132 Lung: 21 µg/mL (≈ 43.8 µM)
KB
  ED50 KB Oral: 18 µg/mL (≈ 37.5 µM)
MiaPaca2
  ED50 MiaPaca2 Pancreatic: 7 µg/mL (≈ 14.6 µM)
PA1
  ED50 PA1 Ovarian: 4 µg/mL (≈ 8.34 µM)
Hep2
  ED50 Hep2 Larynx: 16 µg/mL (≈ 33.4 µM)
U87MG
  ED50 U87MG Glioblastoma: 10 µg/mL (≈ 20.8 µM)
MOLT4
  ED50 MOLT4 Leukemia: <1 µg/mL
DU145
  ED50 DU145 Prostate: 10 µg/mL (≈ 20.8 µM)

## CC1=CCC2C(C)(C)C3=C(CC2(C)C1=O)C(=O)C=CC3=O (stereo not shown) [Compound 19, 6,9,9,10a-Tetramethyl-8a,9,10,10a-tetrahydro-8H-anthracene-1,4,5-trione]
ECV304
  ED50 ECV304 Endothelial: 6 µg/mL (≈ 21.1 µM)
MCF7
  ED50 MCF7 Breast: 18 µg/mL (≈ 63.3 µM)
HT29
  ED50 HT29 Colon: 33 µg/mL (≈ 116 µM)
L132
  ED50 L132 Lung: 6 µg/mL (≈ 21.1 µM)
KB
  ED50 KB Oral: 62 µg/mL (≈ 218 µM)
MiaPaca2
  ED50 MiaPaca2 Pancreatic: 80 µg/mL (≈ 281 µM)
PA1
  ED50 PA1 Ovarian: 15 µg/mL (≈ 52.8 µM)
Hep2
  ED50 Hep2 Larynx: 26 µg/mL (≈ 91.4 µM)
U87MG
  ED50 U87MG Glioblastoma: 16 µg/mL (≈ 56.3 µM)
MOLT4
  ED50 MOLT4 Leukemia: 4 µg/mL (≈ 14.1 µM)
PTC
  ED50 PTC Colon: 40 µg/mL (≈ 141 µM)
DU145
  ED50 DU145 Prostate: 15 µg/mL (≈ 52.8 µM)

## CC1=CCC2C(CC3=C(C(=O)C=CC3=O)C2(C)C)C1=O (stereo not shown) [Compound 20, 6,9,9-Trimethyl-8a,9, 10,10a-tetrahydro-8H-anthracene-1,4,5-trione]
other
  melting point: 125 to 140 °C
